Test results published in PubChem BioAssay (NCI).
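Step 1: Grow cells in 96-well plates. Step 2: Expose to compound for 48 hours at 5 concentrations. Step 3: Interpolate endpoints linearly; if unreached, use highest concentration. At the GI50, growth is halved. TGI denotes the concentration required for complete inhibition of growth.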

How the values were obtained:
Assay in all cases: inhibition of tumour cell growth, NCI panel, 48 h
MDA-MB-435 = tested on: MDA-MB-435
SW-620 colon = tested on: SW-620 colon
SF-539 CNS = tested on: SF-539 CNS
OVCAR-4 ovarian = tested on: OVCAR-4 ovarian
SF-295 CNS = tested on: SF-295 CNS
SK-MEL-2 melanoma = tested on: SK-MEL-2 melanoma
HT29 colon = tested on: HT29 colon
UACC-257 melanoma = tested on: UACC-257 melanoma
HOP-62 NSCLC = tested on: HOP-62 NSCLC
MCF7 breast = tested on: MCF7 breast
TK-10 renal = tested on: TK-10 renal
MALME-3M melanoma = tested on: MALME-3M melanoma
NCI-H23 lung = tested on: NCI-H23 lung
SN12C renal = tested on: SN12C renal
M14 melanoma = tested on: M14 melanoma
K-562 leukemia = tested on: K-562 leukemia
UO-31 renal = tested on: UO-31 renal
SNB-19 CNS = tested on: SNB-19 CNS
HCC-2998 colon = tested on: HCC-2998 colon
786-0 renal = tested on: 786-0 renal
CAKI-1 renal = tested on: CAKI-1 renal
LOX IMVI melanoma = tested on: LOX IMVI melanoma
OVCAR-5 ovarian = tested on: OVCAR-5 ovarian
ACHN renal = tested on: ACHN renal
T-47D breast = tested on: T-47D breast
HS 578T breast = tested on: HS 578T breast
A549 NSCLC = tested on: A549 NSCLC
SR leukemia = tested on: SR leukemia
RXF 393 renal = tested on: RXF 393 renal
RPMI-8226 leukemia = tested on: RPMI-8226 leukemia
SNB-75 CNS = tested on: SNB-75 CNS
NCI-H522 lung = tested on: NCI-H522 lung
MDA-MB-231 breast = tested on: MDA-MB-231 breast
UACC-62 melanoma = tested on: UACC-62 melanoma
DU-145 prostate = tested on: DU-145 prostate
KM12 colon = tested on: KM12 colon
COLO 205 colon = tested on: COLO 205 colon
NCI-H226 lung = tested on: NCI-H226 lung
MDA-MB-468 breast = tested on: MDA-MB-468 breast
OVCAR-8 ovarian = tested on: OVCAR-8 ovarian
MOLT-4 leukemia = tested on: MOLT-4 leukemia
IGROV1 ovarian = tested on: IGROV1 ovarian
HL-60(TB) leukemia = tested on: HL-60(TB) leukemia
HOP-92 NSCLC = tested on: HOP-92 NSCLC
BT-549 breast = tested on: BT-549 breast
A498 renal = tested on: A498 renal
NCI/ADR-RES ovarian = tested on: NCI/ADR-RES ovarian
SF-268 CNS = tested on: SF-268 CNS
SK-MEL-28 melanoma = tested on: SK-MEL-28 melanoma
OVCAR-3 ovarian = tested on: OVCAR-3 ovarian
PC-3 prostate = tested on: PC-3 prostate
SK-MEL-5 melanoma = tested on: SK-MEL-5 melanoma
EKVX NSCLC = tested on: EKVX NSCLC
HCT-15 colon = tested on: HCT-15 colon
U251 CNS = tested on: U251 CNS
CCRF-CEM leukemia = tested on: CCRF-CEM leukemia
NCI-H460 lung = tested on: NCI-H460 lung
HCT-116 colon = tested on: HCT-116 colon
SK-OV-3 ovarian = tested on: SK-OV-3 ovarian

**Q.** What does the source list for `CC1(c2ccccc2)NC(=O)N(CC(=O)Nc2ccc(C(=O)/C=C/c3ccccc3)cc2)C1=O` (stereo not drawn)?
**A.** GI50 (MDA-MB-435): 3.11 µM; TGI (MDA-MB-435): 13.5 µM; GI50 (SW-620 colon): 15.1 µM; TGI (SW-620 colon): 34.9 µM; GI50 (SF-539 CNS): 12.9 µM; TGI (SF-539 CNS): 25.9 µM; GI50 (OVCAR-4 ovarian): 13.3 µM; TGI (OVCAR-4 ovarian): 96.3 µM; GI50 (SF-295 CNS): 11.9 µM; TGI (SF-295 CNS): 26.3 µM; GI50 (SK-MEL-2 melanoma): 12.8 µM; TGI (SK-MEL-2 melanoma): 33.9 µM; GI50 (HT29 colon): 7.82 µM; TGI (HT29 colon): 24.6 µM; GI50 (UACC-257 melanoma): 13.1 µM; TGI (UACC-257 melanoma): 27.4 µM; GI50 (HOP-62 NSCLC): 18.2 µM; TGI (HOP-62 NSCLC): 53.5 µM; GI50 (MCF7 breast): 3.15 µM; TGI (MCF7 breast): 14 µM; GI50 (TK-10 renal): 17.8 µM; TGI (TK-10 renal): 68.2 µM; GI50 (MALME-3M melanoma): 15 µM; TGI (MALME-3M melanoma): 38.9 µM; GI50 (NCI-H23 lung): 13.9 µM; TGI (NCI-H23 lung): 28.9 µM; GI50 (SN12C renal): 11.5 µM; TGI (SN12C renal): 35 µM; GI50 (M14 melanoma): 9.54 µM; TGI (M14 melanoma): 22.7 µM; GI50 (K-562 leukemia): 4.03 µM; TGI (K-562 leukemia): > 100 µM; GI50 (UO-31 renal): 10.3 µM; TGI (UO-31 renal): 23.9 µM; GI50 (SNB-19 CNS): 14 µM; TGI (SNB-19 CNS): 35.6 µM; GI50 (HCC-2998 colon): 4.25 µM; TGI (HCC-2998 colon): 14.3 µM; GI50 (786-0 renal): 13.7 µM; TGI (786-0 renal): 27.4 µM; GI50 (CAKI-1 renal): 11.5 µM; TGI (CAKI-1 renal): 29.6 µM; GI50 (LOX IMVI melanoma): 7.56 µM; TGI (LOX IMVI melanoma): 20.8 µM; GI50 (OVCAR-5 ovarian): 16.5 µM; TGI (OVCAR-5 ovarian): 36.6 µM; GI50 (ACHN renal): 13.2 µM; TGI (ACHN renal): 31 µM; GI50 (T-47D breast): 3.17 µM; TGI (T-47D breast): 29.2 µM; GI50 (HS 578T breast): 20.5 µM; TGI (HS 578T breast): > 100 µM; GI50 (A549 NSCLC): 10.8 µM; TGI (A549 NSCLC): 27.7 µM; GI50 (SR leukemia): 3.1 µM; TGI (SR leukemia): > 100 µM; GI50 (RXF 393 renal): 5.81 µM; TGI (RXF 393 renal): 21.6 µM; GI50 (RPMI-8226 leukemia): 2.27 µM; TGI (RPMI-8226 leukemia): 6.85 µM; GI50 (SNB-75 CNS): 3 µM; TGI (SNB-75 CNS): 41.7 µM; GI50 (NCI-H522 lung): 11.1 µM; TGI (NCI-H522 lung): 27.4 µM; GI50 (MDA-MB-231 breast): 11.7 µM; TGI (MDA-MB-231 breast): 30.9 µM; GI50 (UACC-62 melanoma): 6.52 µM; TGI (UACC-62 melanoma): 23 µM; GI50 (DU-145 prostate): 13.7 µM; TGI (DU-145 prostate): 28.9 µM; GI50 (KM12 colon): 4.94 µM; TGI (KM12 colon): 26.8 µM; GI50 (COLO 205 colon): 14.2 µM; TGI (COLO 205 colon): 29.6 µM; GI50 (NCI-H226 lung): 15.8 µM; TGI (NCI-H226 lung): 78.1 µM; GI50 (MDA-MB-468 breast): 5.7 µM; TGI (MDA-MB-468 breast): 20.6 µM; GI50 (OVCAR-8 ovarian): 16.8 µM; TGI (OVCAR-8 ovarian): 64.3 µM; GI50 (MOLT-4 leukemia): 7.1 µM; TGI (MOLT-4 leukemia): 57.1 µM; GI50 (IGROV1 ovarian): 12.9 µM; TGI (IGROV1 ovarian): 27.7 µM; GI50 (HL-60(TB) leukemia): 12.3 µM; TGI (HL-60(TB) leukemia): 68.3 µM; GI50 (HOP-92 NSCLC): 9.31 µM; TGI (HOP-92 NSCLC): 69.2 µM; GI50 (BT-549 breast): 8.21 µM; TGI (BT-549 breast): 21.6 µM; GI50 (A498 renal): 14.2 µM; TGI (A498 renal): 28.7 µM; GI50 (NCI/ADR-RES ovarian): 21.8 µM; TGI (NCI/ADR-RES ovarian): 82.3 µM; GI50 (SF-268 CNS): 12.4 µM; TGI (SF-268 CNS): 48.6 µM; GI50 (SK-MEL-28 melanoma): 14.3 µM; TGI (SK-MEL-28 melanoma): 29.1 µM; GI50 (OVCAR-3 ovarian): 11.8 µM; TGI (OVCAR-3 ovarian): 26.8 µM; GI50 (PC-3 prostate): 7.74 µM; TGI (PC-3 prostate): 51.9 µM; GI50 (SK-MEL-5 melanoma): 7.59 µM; TGI (SK-MEL-5 melanoma): 20.4 µM; GI50 (EKVX NSCLC): 7.62 µM; TGI (EKVX NSCLC): 33 µM; GI50 (HCT-15 colon): 14.2 µM; TGI (HCT-15 colon): 35.3 µM; GI50 (U251 CNS): 6.17 µM; TGI (U251 CNS): 21.3 µM; GI50 (CCRF-CEM leukemia): 5.76 µM; TGI (CCRF-CEM leukemia): 41.3 µM; GI50 (NCI-H460 lung): 15.5 µM; TGI (NCI-H460 lung): 41 µM; GI50 (HCT-116 colon): 1.63 µM; TGI (HCT-116 colon): 3.35 µM; GI50 (SK-OV-3 ovarian): 17.9 µM; TGI (SK-OV-3 ovarian): 52.2 µM
